Measured values taken from patent US20210369684A1 (MOUNT TAM THERAPEUTICS, INC., priority 2018, published 2021).
“And” between values parts separate entries of the source, which are not always exact repeats. Equal entries are not always repeated.

Assay: Whole blood concentrations after IP administration to mice (LC-MS/MS)
Type: in vivo, mouse
Experimental: Shown below are whole blood concentrations following administration of the compound of Formula II to mice. The compound of Formula II was administered to mice at 2 mg/kg or 10 mg/kg for three days and the concentration of the compound in whole blood determined. These determinations were made using protein precipitation, liquid chromatography (LC), and mass spectrometry (MS/MS). Ten μl aliquots of whole blood and matrix calibration standards were distributed in a 96-well plate; 10 μl aliquots of blank matrix for matrix blanks and control blanks were included as controls. Ten μl of water was added to each sample followed by vortexing. One hundred sixty […] of internal standard was added to each sample except the matrix blanks; 160 μl 70:30 water:acetonitrile (ACN) was added to matrix blanks. This was followed by a […]. One hundred fifty μl of the resultant supernatant was then transferred to a new 96-well plate and the samples blown to dryness at 35° C. The resultant product was then reconstituted with 90 μl ACN.

Formula II Concentrations in Mouse Whole Blood (2 mg/kg IP QD x 3 days, Day 1, 1.00 h, individual animals 7, 8, 9): 452 ng/mL and 380 ng/mL and 317 ng/mL
Formula II Concentrations in Mouse Whole Blood, Mean (2 mg/kg IP QD x 3 days, Day 1, 1.00 h, mean): 383 ng/mL
Formula II Concentrations in Mouse Whole Blood (2 mg/kg IP QD x 3 days, Day 1, 2.00 h, individual animals 7, 8, 9): 415 ng/mL (2×) and 378 ng/mL
Formula II Concentrations in Mouse Whole Blood, Mean (2 mg/kg IP QD x 3 days, Day 1, 2.00 h, mean): 403 ng/mL
Formula II Concentrations in Mouse Whole Blood (2 mg/kg IP QD x 3 days, Day 1, 6.00 h, individual animals 7, 8, 9): 382 ng/mL and 520 ng/mL and 490 ng/mL
Formula II Concentrations in Mouse Whole Blood, Mean (2 mg/kg IP QD x 3 days, Day 1, 6.00 h, mean): 464 ng/mL
Formula II Concentrations in Mouse Whole Blood (2 mg/kg IP QD x 3 days, Day 1, 24.0 h, individual animals 7, 8, 9): 12.2 ng/mL and 18.4 ng/mL and 14.7 ng/mL
Formula II Concentrations in Mouse Whole Blood, Mean (2 mg/kg IP QD x 3 days, Day 1, 24.0 h, mean): 15.1 ng/mL
Formula II Concentrations in Mouse Whole Blood (2 mg/kg IP QD x 3 days, Day 2, 1.00 h, individual animals 7, 8, 9): 481 ng/mL and 208 ng/mL and 524 ng/mL
Formula II Concentrations in Mouse Whole Blood, Mean (2 mg/kg IP QD x 3 days, Day 2, 1.00 h, mean): 404 ng/mL
Formula II Concentrations in Mouse Whole Blood (2 mg/kg IP QD x 3 days, Day 2, 2.00 h, individual animals 7, 8, 9): 501 ng/mL and 233 ng/mL and 570 ng/mL
Formula II Concentrations in Mouse Whole Blood, Mean (2 mg/kg IP QD x 3 days, Day 2, 2.00 h, mean): 435 ng/mL
Formula II Concentrations in Mouse Whole Blood (2 mg/kg IP QD x 3 days, Day 2, 6.00 h, individual animals 7, 8, 9): 553 ng/mL and 632 ng/mL and 552 ng/mL
Formula II Concentrations in Mouse Whole Blood, Mean (2 mg/kg IP QD x 3 days, Day 2, 6.00 h, mean): 579 ng/mL
Formula II Concentrations in Mouse Whole Blood (2 mg/kg IP QD x 3 days, Day 2, 24.0 h, individual animals 7, 8, 9): 15.3 ng/mL and 80.6 ng/mL and 35.2 ng/mL
Formula II Concentrations in Mouse Whole Blood, Mean (2 mg/kg IP QD x 3 days, Day 2, 24.0 h, mean): 43.7 ng/mL
Formula II Concentrations in Mouse Whole Blood (2 mg/kg IP QD x 3 days, Day 3, 1.00 h, individual animals 7, 8, 9): 628 ng/mL and 726 ng/mL and 600 ng/mL
Formula II Concentrations in Mouse Whole Blood, Mean (2 mg/kg IP QD x 3 days, Day 3, 1.00 h, mean): 651 ng/mL
Formula II Concentrations in Mouse Whole Blood (2 mg/kg IP QD x 3 days, Day 3, 2.00 h, individual animals 7, 8, 9): 478 ng/mL and 489 ng/mL and 535 ng/mL
Formula II Concentrations in Mouse Whole Blood, Mean (2 mg/kg IP QD x 3 days, Day 3, 2.00 h, mean): 501 ng/mL
Formula II Concentrations in Mouse Whole Blood (2 mg/kg IP QD x 3 days, Day 3, 6.00 h, individual animals 7, 8, 9): 416 ng/mL and 745 ng/mL and 604 ng/mL
Formula II Concentrations in Mouse Whole Blood, Mean (2 mg/kg IP QD x 3 days, Day 3, 6.00 h, mean): 588 ng/mL
Formula II Concentrations in Mouse Whole Blood (2 mg/kg IP QD x 3 days, Day 3, 24.0 h, individual animals 7, 8, 9): 17.6 ng/mL and 59.6 ng/mL and 48.6 ng/mL
Formula II Concentrations in Mouse Whole Blood, Mean (2 mg/kg IP QD x 3 days, Day 3, 24.0 h, mean): 41.9 ng/mL
Formula II Concentrations in Mouse Whole Blood (10 mg/kg IP QD x 3 days, Day 1, 1.00 h, individual animals 10, 11, 12): 560 ng/mL and 641 ng/mL and 769 ng/mL
Formula II Concentrations in Mouse Whole Blood, Mean (10 mg/kg IP QD x 3 days, Day 1, 1.00 h, mean): 657 ng/mL
Formula II Concentrations in Mouse Whole Blood (10 mg/kg IP QD x 3 days, Day 1, 2.00 h, individual animals 10, 11, 12): 793 ng/mL
Formula II Concentrations in Mouse Whole Blood (10 mg/kg IP QD x 3 days, Day 1, 6.00 h, individual animals 10, 11, 12): 1000 ng/mL and 1950 ng/mL and 544 ng/mL
Formula II Concentrations in Mouse Whole Blood, Mean (10 mg/kg IP QD x 3 days, Day 1, 6.00 h, mean): 1165 ng/mL
Formula II Concentrations in Mouse Whole Blood (10 mg/kg IP QD x 3 days, Day 1, 24.0 h, individual animals 10, 11, 12): 222 ng/mL and 181 ng/mL and 210 ng/mL
Formula II Concentrations in Mouse Whole Blood, Mean (10 mg/kg IP QD x 3 days, Day 1, 24.0 h, mean): 204 ng/mL
Formula II Concentrations in Mouse Whole Blood (10 mg/kg IP QD x 3 days, Day 2, 1.00 h, individual animals 10, 11, 12): 3410 ng/mL and 2970 ng/mL and 546 ng/mL
Formula II Concentrations in Mouse Whole Blood, Mean (10 mg/kg IP QD x 3 days, Day 2, 1.00 h, mean): 2309 ng/mL
Formula II Concentrations in Mouse Whole Blood (10 mg/kg IP QD x 3 days, Day 2, 2.00 h, individual animals 10, 11, 12): 3670 ng/mL and 3930 ng/mL and 2370 ng/mL
Formula II Concentrations in Mouse Whole Blood, Mean (10 mg/kg IP QD x 3 days, Day 2, 2.00 h, mean): 3323 ng/mL
Formula II Concentrations in Mouse Whole Blood (10 mg/kg IP QD x 3 days, Day 2, 6.00 h, individual animals 10, 11, 12): 2770 ng/mL and 3390 ng/mL and 609 ng/mL
Formula II Concentrations in Mouse Whole Blood, Mean (10 mg/kg IP QD x 3 days, Day 2, 6.00 h, mean): 2256 ng/mL
Formula II Concentrations in Mouse Whole Blood (10 mg/kg IP QD x 3 days, Day 2, 24.0 h, individual animals 10, 11, 12): 123 ng/mL and 336 ng/mL and 78.0 ng/mL
Formula II Concentrations in Mouse Whole Blood, Mean (10 mg/kg IP QD x 3 days, Day 2, 24.0 h, mean): 179 ng/mL
Formula II Concentrations in Mouse Whole Blood (10 mg/kg IP QD x 3 days, Day 3, 1.00 h, individual animals 10, 11, 12): AQL and 3420 ng/mL and 987 ng/mL
Formula II Concentrations in Mouse Whole Blood, Mean (10 mg/kg IP QD x 3 days, Day 3, 1.00 h, mean (animal 10 AQL)): 2204 ng/mL
Formula II Concentrations in Mouse Whole Blood (10 mg/kg IP QD x 3 days, Day 3, 2.00 h, individual animals 10, 11, 12): 5170 ng/mL and 3650 ng/mL and 777 ng/mL
Formula II Concentrations in Mouse Whole Blood, Mean (10 mg/kg IP QD x 3 days, Day 3, 2.00 h, mean): 3199 ng/mL
Formula II Concentrations in Mouse Whole Blood (10 mg/kg IP QD x 3 days, Day 3, 6.00 h, individual animals 10, 11, 12): 3330 ng/mL and 2890 ng/mL and 730 ng/mL
Formula II Concentrations in Mouse Whole Blood, Mean (10 mg/kg IP QD x 3 days, Day 3, 6.00 h, mean): 2317 ng/mL
Formula II Concentrations in Mouse Whole Blood (10 mg/kg IP QD x 3 days, Day 3, 24.0 h, individual animals 10, 11, 12): 223 ng/mL and 323 ng/mL and 124 ng/mL
Formula II Concentrations in Mouse Whole Blood, Mean (10 mg/kg IP QD x 3 days, Day 3, 24.0 h, mean): 223 ng/mL
Compound: CO[C@H]1C[C@@H]2CC[C@@H](C)[C@@](O)(C2)C(=O)C(=O)N2CCCC[C@H]2C(=O)O[C@H]([C@H](C)C[C@H]2C[C@H]3C[C@@H]2C[C@@H]3O)CC(=O)[C@H](C)/C=C(\C)[C@@H](O)[C@@H](OC)C(=O)[C@H](C)C[C@H](C)/C=C/C=C/C=C/1C [Formula II, C37-[(1R,2S,4R,5S)-5-hyhroxybicyclo[2.2.1]heptane] rapamycin]
concentrations in whole blood over time (in words) (2 mg/kg or 10 mg/kg IP QD for three days, mice): sufficient concentrations in whole blood over time
